According to patent US8952024B2, “Herbicidal pyrimidone derivatives” (E I du Pont de Nemours and Company, priority 2009, dated 2015):

Assays:
Assay in all cases: Test B pre-/postemergence plant response
Assay type in all cases: in vivo
[1] = tested on: Surinam grass (Brachiaria decumbens); conditions: for Surinam Grass plant response rating (0 to 100 scale): 62 g ai/ha, postemergence, 0 is no effect, 100 is complete control, 13 to 15 days; for Plant response rating, Surinam Grass: Postemergence, scale 0 to 100 (0 no effect, 100 complete control)
Procedure, shortened: (§1)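 Ratings reflect visual comparison with untreated controls 13 to 15 days after application, from 0 (no effect) to 100 (complete control). Application was preemergence to seeded loam/sand soil or postemergence to 1- to 4-leaf plants, with compound in a non-phytotoxic, surfactant-containing solvent.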

[2] = tested on: blackgrass (Alopecurus myosuroides); conditions: for Blackgrass plant response rating (0 to 100 scale): 62 g ai/ha, 0 is no effect, 13 to 15 days
Procedure, shortened: as §1

[3] = tested on: cocklebur (Xanthium strumarium); conditions: for Cocklebur plant response rating (0 to 100 scale): 62 g ai/ha, 0 is no effect, 13 to 15 days
Procedure, shortened: as §1

[4] = tested on: corn (Zea mays); conditions: for Corn plant response rating (0 to 100 scale): 62 g ai/ha, 0 is no effect, 13 to 15 days
Procedure, shortened: as §1

[5] = tested on: downy bromegrass (Bromus tectorum); conditions: for Bromegrass, Downy plant response rating (0 to 100 scale): 62 g ai/ha, 0 is no effect, 13 to 15 days
Procedure, shortened: as §1

[6] = tested on: giant foxtail (Setaria faberii); conditions: for Foxtail, Giant plant response rating (0 to 100 scale): 62 g ai/ha, 0 is no effect, 13 to 15 days
Procedure, shortened: as §1

[7] = tested on: goosegrass (Eleusine indica); conditions: for Goosegrass plant response rating (0 to 100 scale): 62 g ai/ha, 0 is no effect, 13 to 15 days
Procedure, shortened: as §1

[8] = tested on: green foxtail (Setaria viridis); conditions: for Foxtail, Green plant response rating (0 to 100 scale): 62 g ai/ha, 0 is no effect, 13 to 15 days
Procedure, shortened: as §1

[9] = tested on: johnsongrass (Sorghum halepense); conditions: for Johnsongrass plant response rating (0 to 100 scale): 62 g ai/ha, 0 is no effect, 13 to 15 days
Procedure, shortened: as §1

[10] = tested on: kochia (Kochia scoparia); conditions: for Kochia plant response rating (0 to 100 scale): 62 g ai/ha, 0 is no effect, 13 to 15 days
Procedure, shortened: as §1

[11] = tested on: large crabgrass (Digitaria sanguinalis); conditions: for Crabgrass, Large plant response rating (0 to 100 scale): 62 g ai/ha, 0 is no effect, 13 to 15 days
Procedure, shortened: as §1

[12] = tested on: morningglory (Ipomoea coccinea); conditions: for Morningglory plant response rating (0 to 100 scale): 62 g ai/ha, 0 is no effect, 13 to 15 days
Procedure, shortened: as §1

[13] = tested on: soybean (Glycine max); conditions: for Soybean plant response rating (0 to 100 scale): 62 g ai/ha, postemergence, 0 is no effect, 100 is complete control, 13 to 15 days; for Plant response rating, Soybean: Postemergence, scale 0 to 100 (0 no effect, 100 complete control)
Procedure, shortened: as §1

[14] = tested on: velvetleaf (Abutilon theophrasti); conditions: for Velvetleaf plant response rating (0 to 100 scale): 62 g ai/ha, postemergence, 0 is no effect, 100 is complete control, 13 to 15 days; for Plant response rating, Velvetleaf: Postemergence, scale 0 to 100 (0 no effect, 100 complete control)
Procedure, shortened: as §1

[15] = tested on: wild oat (Avena fatua); conditions: for Oat, Wild plant response rating (0 to 100 scale): 62 g ai/ha, 0 is no effect, 13 to 15 days
Procedure, shortened: as §1

[16] = tested on: woolly cupgrass (Eriochloa villosa); conditions: for Cupgrass, Woolly plant response rating (0 to 100 scale): 62 g ai/ha, 0 is no effect, 13 to 15 days
Procedure, shortened: as §1

[17] = tested on: yellow nutsedge (Cyperus esculentus); conditions: for Nutsedge, Yellow plant response rating (0 to 100 scale): 62 g ai/ha, 0 is no effect, 13 to 15 days
Procedure, shortened: as §1

[18] = 31 g ai/ha, postemergence, scale 0 to 100, 0 is no effect, 100 is complete control
[19] = postemergence, 100 is complete control
[20] = Postemergence, 125 g ai/ha, scale 0 to 100 (0 no effect, 100 complete control)
[21] = Postemergence, 250 g ai/ha, scale 0 to 100 (0 no effect, 100 complete control)

O=C1CCCC(O)=C1C(=O)c1cnc(-c2ccsc2)n(C2CCCCC2)c1=O [Compound 99]
75: Plant response rating, Surinam Grass ([1]; 125 g ai/ha) | Plant response rating, Foxtail, Giant [6, 18] | Plant response rating, Goosegrass [7, 18] | Goosegrass plant response rating (0 to 100 scale) [7, 19] | Plant response rating, Goosegrass [7, 20] | Johnsongrass plant response rating (0 to 100 scale) [9, 19] | Cupgrass, Woolly plant response rating (0 to 100 scale) [16, 19] | Plant response rating, Nutsedge, Yellow [17, 21]
100: Cocklebur plant response rating (0 to 100 scale) [3, 19] | Plant response rating, Cocklebur [3, 20] | Plant response rating, Cocklebur [3, 21] | Plant response rating, Kochia [10, 20] | Plant response rating, Kochia [10, 21] | Plant response rating, Morningglory [12, 18] | Morningglory plant response rating (0 to 100 scale) [12, 19] | Plant response rating, Morningglory [12, 20] | Plant response rating, Morningglory [12, 21] | Soybean plant response rating (0 to 100 scale) [13] | Plant response rating, Soybean ([13]; 125 g ai/ha) | Plant response rating, Soybean ([13]; 250 g ai/ha) | Velvetleaf plant response rating (0 to 100 scale) [14] | Plant response rating, Velvetleaf ([14]; 125 g ai/ha) | Plant response rating, Velvetleaf ([14]; 250 g ai/ha)
80: Plant response rating, Surinam Grass ([1]; 250 g ai/ha) | Plant response rating, Corn [4, 21] | Foxtail, Giant plant response rating (0 to 100 scale) [6, 19] | Plant response rating, Goosegrass [7, 21] | Plant response rating, Johnsongrass [9, 20] | Plant response rating, Kochia [10, 18] | Kochia plant response rating (0 to 100 scale) [10, 19] | Plant response rating, Oat, Wild [15, 21] | Plant response rating, Cupgrass, Woolly [16, 20]
65: Corn plant response rating (0 to 100 scale) [4, 19] | Plant response rating, Corn [4, 20]
20: Oat, Wild plant response rating (0 to 100 scale) [15, 19]
70: Surinam Grass plant response rating (0 to 100 scale) [1] | Plant response rating, Johnsongrass [9, 18] | Plant response rating, Cupgrass, Woolly [16, 18] | Nutsedge, Yellow plant response rating (0 to 100 scale) [17, 19] | Plant response rating, Nutsedge, Yellow [17, 20]
95: Plant response rating, Cocklebur [3, 18] | Plant response rating, Foxtail, Giant [6, 20] | Plant response rating, Foxtail, Giant [6, 21] | Plant response rating, Foxtail, Green [8, 20] | Plant response rating, Johnsongrass [9, 21] | Plant response rating, Crabgrass, Large [11, 20] | Plant response rating, Crabgrass, Large [11, 21]
0: Plant response rating, Blackgrass [2, 18] | Blackgrass plant response rating (0 to 100 scale) [2, 19]
45: Plant response rating, Nutsedge, Yellow [17, 18]
5: Plant response rating, Blackgrass [2, 20] | Plant response rating, Bromegrass, Downy [5, 18] | Bromegrass, Downy plant response rating (0 to 100 scale) [5, 19]
15: Plant response rating, Blackgrass [2, 21]
98: Plant response rating, Foxtail, Green [8, 21]
40: Plant response rating, Corn [4, 18] | Plant response rating, Oat, Wild [15, 20]
25: Plant response rating, Bromegrass, Downy [5, 20] | Plant response rating, Bromegrass, Downy [5, 21]
90: Foxtail, Green plant response rating (0 to 100 scale) [8, 19]
85: Plant response rating, Crabgrass, Large [11, 18] | Crabgrass, Large plant response rating (0 to 100 scale) [11, 19] | Plant response rating, Cupgrass, Woolly [16, 21]
10: Plant response rating, Oat, Wild [15, 18]
50: Plant response rating, Foxtail, Green [8, 18]

CCCn1c(-c2cccc(OC)c2)ncc(C(=O)C2=C(O)CCCC2=O)c1=O [Compound 100]
95: Plant response rating, Cocklebur [3, 20] | Kochia plant response rating (0 to 100 scale) [10, 19]
25: Plant response rating, Johnsongrass [9, 21]
100: Plant response rating, Kochia [10, 21] | Morningglory plant response rating (0 to 100 scale) [12, 19] | Plant response rating, Morningglory [12, 20] | Plant response rating, Morningglory [12, 21] | Plant response rating, Soybean ([13]; 125 g ai/ha) | Plant response rating, Soybean ([13]; 250 g ai/ha)
85: Cocklebur plant response rating (0 to 100 scale) [3, 19] | Plant response rating, Foxtail, Giant [6, 21] | Plant response rating, Foxtail, Green [8, 21] | Plant response rating, Velvetleaf ([14]; 250 g ai/ha)
10: Plant response rating, Blackgrass [2, 20] | Corn plant response rating (0 to 100 scale) [4, 19] | Bromegrass, Downy plant response rating (0 to 100 scale) [5, 19] | Plant response rating, Johnsongrass [9, 20] | Oat, Wild plant response rating (0 to 100 scale) [15, 19]
15: Plant response rating, Bromegrass, Downy [5, 20] | Plant response rating, Nutsedge, Yellow [17, 20]
20: Plant response rating, Corn [4, 20] | Plant response rating, Foxtail, Green [8, 18]
80: Plant response rating, Foxtail, Giant [6, 20] | Plant response rating, Foxtail, Green [8, 20] | Plant response rating, Crabgrass, Large [11, 21]
75: Plant response rating, Surinam Grass ([1]; 250 g ai/ha) | Foxtail, Giant plant response rating (0 to 100 scale) [6, 19] | Plant response rating, Goosegrass [7, 20] | Plant response rating, Goosegrass [7, 21] | Plant response rating, Crabgrass, Large [11, 20] | Plant response rating, Cupgrass, Woolly [16, 21]
35: Plant response rating, Bromegrass, Downy [5, 21]
0: Plant response rating, Blackgrass [2, 18] | Plant response rating, Corn [4, 18] | Plant response rating, Johnsongrass [9, 18] | Plant response rating, Oat, Wild [15, 18]
60: Crabgrass, Large plant response rating (0 to 100 scale) [11, 19] | Plant response rating, Morningglory [12, 18]
5: Blackgrass plant response rating (0 to 100 scale) [2, 19] | Plant response rating, Bromegrass, Downy [5, 18] | Johnsongrass plant response rating (0 to 100 scale) [9, 19] | Nutsedge, Yellow plant response rating (0 to 100 scale) [17, 19]
30: Plant response rating, Oat, Wild [15, 20] | Plant response rating, Oat, Wild [15, 21]
98: Plant response rating, Cocklebur [3, 21] | Plant response rating, Kochia [10, 20] | Soybean plant response rating (0 to 100 scale) [13]
55: Plant response rating, Crabgrass, Large [11, 18]
70: Plant response rating, Foxtail, Giant [6, 18] | Plant response rating, Goosegrass [7, 18] | Goosegrass plant response rating (0 to 100 scale) [7, 19] | Foxtail, Green plant response rating (0 to 100 scale) [8, 19] | Velvetleaf plant response rating (0 to 100 scale) [14] | Plant response rating, Velvetleaf ([14]; 125 g ai/ha) | Plant response rating, Cupgrass, Woolly [16, 20]
40: Plant response rating, Blackgrass [2, 21] | Plant response rating, Cocklebur [3, 18] | Plant response rating, Nutsedge, Yellow [17, 21]
45: Plant response rating, Corn [4, 21]
65: Surinam Grass plant response rating (0 to 100 scale) [1] | Plant response rating, Surinam Grass ([1]; 125 g ai/ha) | Cupgrass, Woolly plant response rating (0 to 100 scale) [16, 19]
